Results as given in EP4603105A1, “PHARMACEUTICAL COMPOSITION CONTAINING CYCLIC COMPOUND HAVING SELECTIVE KRAS INHIBITORY EFFECT AGAINST HRAS AND NRAS” (CHUGAI SEIYAKU KABUSHIKI KAISHA, priority 2022, dated 2024).
Read-outs that look alike come from different tables or passages of the source.

Assays:
[1] = molecular target: GDP-bound KRAS wild-type protein (Homo sapiens, UniProt P01116); test: Binding to KRAS by surface plasmon resonance (SPR), dissociation constant KD
How it was run: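 Biotinylated GDP-bound RAS was captured at about 100–300 RU. Running buffer: HBS pH 7.4, 10 mM MgCl2, 10 µM GDP, 1 mM DTT, 0.01% Tween 20, 4% DMSO.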

HRAS wild-type protein = HRAS wild-type protein (Homo sapiens, UniProt P01112); test: Binding to HRAS by surface plasmon resonance (SPR), KD and KD ratio to KRAS
HRAS wild-type protein, sequence (P01112 whole entry): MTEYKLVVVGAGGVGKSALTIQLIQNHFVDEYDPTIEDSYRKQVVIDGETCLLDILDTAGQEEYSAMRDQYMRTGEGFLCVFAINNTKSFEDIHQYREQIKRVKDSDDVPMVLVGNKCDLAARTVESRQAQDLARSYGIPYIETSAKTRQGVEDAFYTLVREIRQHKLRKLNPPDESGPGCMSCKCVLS
How it was run: (§1)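 Compound binding is evaluated by SPR single-cycle kinetics, with concentrations added intermittently from low to high for 75 s each. Target surfaces carry GDP-loaded biotinylated Avi-RAS at about 100–300 RU, regenerated after each cycle; temperature 30°C. A 1:1 binding model gives KD.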

[2] = molecular target: GDP-bound NRAS wild-type protein (Homo sapiens, UniProt P01111); test: Binding to NRAS by surface plasmon resonance (SPR), KD and KD ratio to KRAS
GDP-bound NRAS wild-type protein, sequence (P01111 whole entry): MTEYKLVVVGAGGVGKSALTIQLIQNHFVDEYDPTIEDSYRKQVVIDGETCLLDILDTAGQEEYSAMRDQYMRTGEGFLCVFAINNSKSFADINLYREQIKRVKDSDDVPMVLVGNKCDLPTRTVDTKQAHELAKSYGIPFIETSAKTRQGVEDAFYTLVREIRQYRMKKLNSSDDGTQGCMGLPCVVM
How it was run: as §1

[3] = tested on: human lung cancer strain NCI-H441; test: NCI-H441 cell proliferation inhibitory activity (CellTiter-Glo, 4 days); assay type: cell-based; conditions: read-out: NCl-H441 IC50
How it was run: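 Proliferation was scored by […] measured after the reagent was added to cultures kept at 37°C in 5% carbon dioxide.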

[4] = ratio of KD for HRAS wild-type protein to KD for KRAS
[5] = ratio of KD for GDP-bound NRAS wild-type protein to KD for KRAS
[6] = Single Cycle Kinetics, 1:1 binding model
[7] = ratio of KD with respect to HRAS wild-type protein to KD with respect to KRAS
[8] = ratio of KD with respect to GDP-bound NRAS wild-type protein to KD with respect to KRAS
[9] = 50% proliferation inhibitory concentration, four days

GDP-bound KRAS wild-type protein, sequence (P01116 1-188 isoform P01116-2): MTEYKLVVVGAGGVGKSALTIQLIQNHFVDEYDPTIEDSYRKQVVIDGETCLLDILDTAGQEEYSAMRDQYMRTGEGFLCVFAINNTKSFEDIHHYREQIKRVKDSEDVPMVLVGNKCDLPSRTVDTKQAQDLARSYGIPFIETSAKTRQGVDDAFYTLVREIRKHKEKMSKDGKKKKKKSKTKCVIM

Kd ([1]; Single Cycle Kinetics)	IC50 ([3]; NCI-H441 cells, 4 days)	Kd [1, 6]	IC50 [3, 9]	Kd ([1]; 1:1 binding model)	SMILES	HRAS /KRAS (HRAS wild-type protein; [4])	NRAS /KRAS [2, 5]	HRAS /KRAS (HRAS wild-type protein; [7])	NRAS /KRAS [2, 8]
0.35 nM	19.1 nM				CCCO[C@@H]1C[C@H]2C(=O)NC3(CC(C)(C)C3)C(=O)N(C)[C@@H](C3CCCC3)C(=O)N(C)[C@H](C(=O)N(C)CC)CC(=O)N(C)[C@@H](COCC)C(=O)N[C@@H]([C@@H](C)CC)C(=O)N3C[C@@H](F)C[C@H]3C(=O)N(C)[C@H]3C/C=C\CCN(C3=O)[C@@H](Cc3ccc(C)cc3)C(=O)N(C)CC(=O)N[C@@H](CCc3cc(F)c(C(F)(F)F)c(F)c3)C(=O)N2C1 [PP3461]	A (a compound having 10 or more and less than 20 is denoted as A)	A (a compound having 10 or more and less than 20 is denoted as A)		
0.56 nM	11.1 nM				CCC[C@H]1C(=O)N[C@@H]([C@@H](C)CC)C(=O)N(C2CC2)CC(=O)N(C)[C@H]2C/C=C\CCN(C2=O)[C@@H](Cc2ccc(C)cc2)C(=O)N(C)CC(=O)N[C@@H](CCc2ccc(C(F)(F)F)c(OC)c2)C(=O)N2C[C@H](OCC)C[C@H]2C(=O)OC2(CCC2)C(=O)N(C)[C@@H](C2CCCC2)C(=O)N(C)[C@H](C(=O)N(C)C)CC(=O)N1C [PP3387]	B (a compound having 3 or more and less than 10 is denoted as B)	A (a compound having 10 or more and less than 20 is denoted as A)		
0.27 nM	12.3 nM				CCO[C@@H]1C[C@H]2C(=O)NC3(CCCC3)C(=O)N(C)[C@@H](C3CCCC3)C(=O)N(C)[C@H](C(=O)N(C)C)CC(=O)N(C)[C@@H](CC(C)C)C(=O)N[C@@H]([C@@H](C)CC)C(=O)N(C)CC(=O)N(C)[C@H]3C/C(F)=C\CCN(C3=O)[C@@H](Cc3ccc(C)cc3)C(=O)N(C)CC(=O)N[C@@H](CCc3cc(F)c(C(F)(F)F)c(F)c3)C(=O)N2C1 [PP3511]	B (a compound having 3 or more and less than 10 is denoted as B)	B (a compound having 3 or more and less than 10 is denoted as B)		
0.86 nM	9.1 nM				CCC[C@H]1C(=O)N[C@@H]([C@@H](C)CC)C(=O)N(C2CC2)CC(=O)N(C)[C@H]2C/C=C\CCN(C2=O)[C@@H](Cc2ccc(C(F)(F)F)cc2)C(=O)N(C)CC(=O)N[C@@H](CCc2ccc(C(F)(F)F)c(OC)c2)C(=O)N2C[C@H](OCC)C[C@H]2C(=O)OC2(CCC2)C(=O)N(C)[C@@H](C2CCCC2)C(=O)N(C)[C@H](C(=O)N(C)C)CC(=O)N1C [PP3369]	A (a compound having 10 or more and less than 20 is denoted as A)	A (a compound having 10 or more and less than 20 is denoted as A)		
0.067 nM	5 nM				CCC[C@H]1C(=O)N[C@@H]([C@@H](C)CC)C(=O)N(C)CC(=O)N(C)[C@H]2C/C=C\CCN(C2=O)[C@@H](Cc2ccc(C(F)(F)F)cc2)C(=O)N(C)CC(=O)N[C@@H](CCc2cc(F)c(C(F)(F)F)c(F)c2)C(=O)N2CC[C@H](OC)[C@H]2C(=O)N(C)C2(CCC2)C(=O)N(C)[C@@H](C2CCCC2)C(=O)N(C)[C@H](C(=O)N(C)C)CC(=O)N1C [PP3284]	A (a compound having 10 or more and less than 20 is denoted as A)	A (a compound having 10 or more and less than 20 is denoted as A)		
0.066 nM	5.3 nM				CCC[C@H]1C(=O)N[C@@H]([C@@H](C)CC)C(=O)N(C)CC(=O)N(C)[C@H]2C/C=C\CCN(C2=O)[C@@H](Cc2ccc(C(F)(F)F)cc2)C(=O)N(C)CC(=O)N[C@@H](CCc2ccc(C(F)(F)F)c(OC)c2)C(=O)N2CC[C@H](OC)[C@H]2C(=O)N(C)C2(CCC2)C(=O)N(C)[C@@H](C2CCCC2)C(=O)N(C)[C@H](C(=O)N(C)C)CC(=O)N1C [PP3243]	A (a compound having 10 or more and less than 20 is denoted as A)	A (a compound having 10 or more and less than 20 is denoted as A)		
		0.096 nM	15.2 nM		C=CC[C@H]1C(=O)N[C@@H]([C@@H](C)CC)C(=O)N(C)CC(=O)N(C)[C@H]2C/C=C\CCN(C2=O)[C@@H](CC2CCC(F)(F)CC2)C(=O)N(C)CC(=O)N[C@@H](CCc2cc(F)c(C(F)(F)F)c(F)c2)C(=O)N2C[C@H](OCC)C[C@H]2C(=O)NC2(CCC2)C(=O)N(C)[C@@H](C2CCCC2)C(=O)N(C)[C@H](C(=O)N(C)C)CC(=O)N1C [PP1454]			A (a compound having 10 or more and less than 20 is denoted as A)	A (a compound having 10 or more and less than 20 is denoted as A)

The remaining lines, values behind:

SMILES	Kd ([1]; Single Cycle Kinetics)	IC50 ([3]; NCI-H441 cells, 4 days)	Kd [1, 6]	IC50 [3, 9]	Kd ([1]; 1:1 binding model)	HRAS /KRAS (HRAS wild-type protein; [4])	NRAS /KRAS [2, 5]	HRAS /KRAS (HRAS wild-type protein; [7])	NRAS /KRAS [2, 8]
CCO[C@@H]1C[C@H]2C(=O)NC3(CCC3)C(=O)N(C)[C@@H](C3CCCC3)C(=O)N(C)[C@H](C(=O)N3CCOCC3)CC(=O)N(C)[C@@H](CC(F)F)C(=O)N[C@@H]([C@@H](C)CC)C(=O)N(C)CC(=O)N(C)[C@H]3CCCCCN(C3=O)[C@@H](Cc3ccc(F)cc3)C(=O)N(C)CC(=O)N[C@@H](CCc3cc(F)c(C(F)(F)F)c(F)c3)C(=O)N2C1 [PP1177]			0.081 nM	32.5 nM				B (a compound having 3 or more and less than 10 is denoted as B)	B (a compound having 3 or more and less than 10 is denoted as B)
CCO[C@@H]1C[C@H]2C(=O)NC3(CCC3)C(=O)N(C)[C@@H](C3CCCC3)C(=O)N(C)[C@H](C(=O)N3CCCCC3)CC(=O)N(C)[C@@H](CC3CC3)C(=O)N[C@@H]([C@@H](C)CC)C(=O)N(C)CC(=O)N(C)[C@H]3C/C=C\CCN(C3=O)[C@@H](Cc3ccc(C(F)(F)F)cc3)C(=O)N(C)CC(=O)N[C@@H](CCc3cc(F)c(C(F)(F)F)c(F)c3)C(=O)N2C1 [PP1291]			0.24 nM	16.7 nM				A (a compound having 10 or more and less than 20 is denoted as A)	A (a compound having 10 or more and less than 20 is denoted as A)
CCCOC[C@H]1C(=O)N[C@@H](C2CCCC2)C(=O)N(CCC)CC(=O)N(C)[C@H]2C/C=C\CCN(C2=O)[C@@H](Cc2ccc(C(F)F)cc2)C(=O)N(C)CC(=O)N[C@@H](CCc2ccc(C(F)(F)F)c(Cl)c2)C(=O)N2C[C@H](OC(C)C)C[C@H]2C(=O)N(C)C2(CCC2)C(=O)N(C)[C@@H](C(CC)CC)C(=O)N(C)[C@H](C(=O)N(C)C)CC(=O)N1C [PP3489]	1.3 nM	45 nM				A (a compound having 10 or more and less than 20 is denoted as A)	AA (a compound having 20 or more is denoted as AA)		
CCC[C@H]1C(=O)N[C@@H]([C@@H](C)CC)C(=O)N(C)CC(=O)N(C)[C@H]2C/C=C\CCN(C2=O)[C@@H](Cc2ccc(C)cc2)C(=O)N(C)CC(=O)N[C@@H](CCc2ccc(Cl)c(Cl)c2)C(=O)N2C[C@H](OCC)C[C@H]2C(=O)NC2(CC(C)(C)C2)C(=O)N(C)[C@@H](CC2CCC2)C(=O)N(C)[C@H](C(=O)N(C)C)CC(=O)N1C [PP2755]		35.7 nM			0.56 nM	A (a compound having 10 or more and less than 20 is denoted as A)	A (a compound having 10 or more and less than 20 is denoted as A)		
CCO[C@@H]1C[C@H]2C(=O)NC3(CCC3)C(=O)N(C)[C@@H](C3CCCC3)C(=O)N(C)[C@H](C(=O)N(C)C)CC(=O)N(C)[C@@H](CC(C)C)C(=O)N[C@@H]([C@@H](C)CC)C(=O)N(C)CC(=O)N(C)[C@H]3C/C=C\CCN(C3=O)[C@@H](Cc3ccc(F)cc3)C(=O)N(C)CC(=O)N[C@@H](CCc3ccc(Cl)c(Cl)c3)C(=O)N2C1 [PP1482]			0.45 nM	76.4 nM				B (a compound having 3 or more and less than 10 is denoted as B)	A (a compound having 10 or more and less than 20 is denoted as A)
CCC(CC)[C@H]1C(=O)N(C)[C@H](C(=O)N(C)C)CC(=O)N(C)[C@@H](COC)C(=O)N[C@@H]([C@@H](C)CC)C(=O)N(C)CC(=O)N(C)[C@H]2C/C=C\CCN(C2=O)[C@@H](Cc2ccc(C(F)F)cc2)C(=O)N(C)CC(=O)N[C@@H](CCc2ccc(Cl)c(Cl)c2)C(=O)N2C[C@H](OC3CCCC3)C[C@H]2C(=O)NC2(CC(C)(C)C2)C(=O)N1C [PP2649]		61 nM			0.4 nM	A (a compound having 10 or more and less than 20 is denoted as A)	AA (a compound having 20 or more is denoted as AA)		
CCC[C@H]1C(=O)N[C@@H]([C@@H](C)CC)C(=O)N(C)CC(=O)N(C)[C@H]2C/C=C\CCN(C2=O)[C@@H](Cc2ccc(C(F)(F)F)cc2)C(=O)N(C)CC(=O)N[C@@H](CCc2ccc(C(F)(F)F)c(OC)c2)C(=O)N2CC3(CC3)C[C@H]2C(=O)N(C)C2(CCC2)C(=O)N(C)[C@@H](C(CC)CC)C(=O)N(C)[C@H](C(=O)N(C)C)CC(=O)N1C [PP3361]	1.5 nM	4.7 nM				A (a compound having 10 or more and less than 20 is denoted as A)	A (a compound having 10 or more and less than 20 is denoted as A)		
CCC[C@H]1C(=O)N[C@@H](CC(C)C)C(=O)N2C[C@@H](OC)C[C@H]2C(=O)N(C)[C@H]2C/C=C\CCN(C2=O)[C@@H](Cc2ccc(C)cc2)C(=O)N(C)CC(=O)N[C@@H](CCc2cc(F)c(C(F)(F)F)c(F)c2)C(=O)N2C[C@H](OCC)C[C@H]2C(=O)NC2(CC(C)(C)C2)C(=O)N(C)[C@@H](C2CCCC2)C(=O)N(C)[C@H](C(=O)N(C)C)CC(=O)N1C [PP2553]		121 nM			3.4 nM	B (a compound having 3 or more and less than 10 is denoted as B)	A (a compound having 10 or more and less than 20 is denoted as A)		
